ChEMBL document CHEMBL1131896, “Probing the radical mechanism of galactose oxidase using an ultrafast radical probe” (Bioorg Med Chem Lett, 1999)

Assays:
[1] = system: Galactose oxidase (Fusarium austroamericanum); assay: Inactivation rate constant against Galactose oxidase (GOase)
[2] = biological target: Galactose oxidase (Fusarium austroamericanum); assay: Binding constant against Galactose oxidase (GOase)

| Ki [2] | Compound | further results |
| --- | --- | --- |
|  | OC[C@H]1C[C@@H]1c1ccccc1 (relative stereo) | K inact ([1]; tested as the 2H-labelled form): 0.00082 s⁻¹ |
| 5.1 mM | [2H]C([2H])(O)[C@H]1C[C@@H]1c1ccccc1 (relative stereo) |  |
| 5.6 mM | OC[C@H]1C[C@@H]1c1ccccc1 [listing 1 of 2 here] |  |
|  | OC[C@H]1C[C@@H]1c1ccccc1 [listing 2 of 2 here] | K inact [1]: 0.0026 s⁻¹ |
